{
  "source": "ChEMBL document CHEMBL4265941",
  "about": "“Side effects of methotrexate therapy for rheumatoid arthritis: A systematic review” (Eur J Med Chem, 2018)",
  "assay_type_in_all_cases": "ADME, organism-based",
  "key": {"[1]": {"test": "Tmax in RA patient at 7.5 to 25 mg, im", "conditions": "human, in vivo"}, "[2]": {"test": "Tmax in RA patient at 7.5 to 25 mg, po", "conditions": "human, in vivo"}, "[3]": {"test": "Oral bioavailability in human", "conditions": "in vivo"}},
  "data": [
    {"smiles": "CN(Cc1cnc2nc(N)nc(N)c2n1)c1ccc(C(=O)N[C@@H](CCC(=O)O)C(=O)O)cc1", "note": "[METHOTREXATE]", "values": [
      {"measurement": "Tmax", "setting": "[1]", "result": 1.3, "unit": "h"},
      {"measurement": "Tmax", "setting": "[2]", "result": 1.5, "unit": "h"},
      {"measurement": "bioavailability", "setting": "[3]", "result": "50 to 80", "unit": "%"}
    ]}
  ]
}
